Source: US20030087906A1, “NITROGEN SUBSTITUTED BIARYL PURINE DERIVATIVES AS POTENT ANTIPROLIFERATIVE AGENTS” (priority 2001, published 2003)

Key:
Test in all cases: NCI 60-cell line growth inhibition assay
Assay type in all cases: cell-based
HS 578T = settings: Homo sapiens
MCF7 = settings: Homo sapiens
MDA-MB-231/ATCC = settings: Homo sapiens; MDA-MB-231/ATCC (Breast)
MDA-MB-435 = settings: Homo sapiens
MDA-N = settings: Homo sapiens
SF-295 = settings: Homo sapiens
SNB-75 = settings: Homo sapiens
U251 = settings: Homo sapiens, U-251
COLO 205 = settings: Homo sapiens
HCT-15 = settings: Homo sapiens
HT29 = settings: Homo sapiens, HT-29
KM12 = settings: Homo sapiens
SW-620 = settings: Homo sapiens
HL-60(TB) = settings: Homo sapiens; HL-60(TB) (Leukemia)
K-562 = settings: Homo sapiens, K562
MOLT-4 = settings: Homo sapiens
RPMI-8226 = settings: Homo sapiens
SR = settings: Homo sapiens
LOX IMVI = settings: Homo sapiens
M14 = settings: Homo sapiens
SK-MEL-28 = settings: Homo sapiens
A549/ATCC = settings: Homo sapiens
EKVX = settings: Homo sapiens
HOP-62 = settings: Homo sapiens
HOP-92 = settings: Homo sapiens
NCI-H226 = settings: Homo sapiens
NCI-H322M = settings: Homo sapiens
NCI-H522 = settings: Homo sapiens; NCI-H522 (Non-Small Cell Lung)
IGROV1 = settings: Homo sapiens, IGROV-1
OVCAR-4 = settings: Homo sapiens
OVCAR-5 = settings: Homo sapiens
OVCAR-8 = settings: Homo sapiens
RXF 393 = settings: Homo sapiens
SN12C = settings: Homo sapiens
TK-10 = settings: Homo sapiens; TK-10 (Renal)
UO-31 = settings: Homo sapiens
SK-MEL-5 = settings: Homo sapiens
NCI-H460 = settings: Homo sapiens
SK-OV-3 = settings: Homo sapiens
CAKI-1 = settings: Homo sapiens
[1] = A549/ATCC (Non-Small Cell Lung)
[2] = NCI-H322M (Non-Small Cell Lung)

For `CC(C)n1cnc2c(NCc3ccc(-c4ccsc4)cc3)nc(N[C@H]3CC[C@H](N)CC3)nc21` [Compound 12], the GI50 (HS 578T; HS 578T (Breast)) was under 0.005 µM, the GI50 (MCF7; MCF7 (Breast)) was under 5 nM and the GI50 (MDA-MB-231/ATCC) was under 5 nM. For the same compound, the GI50 (MDA-MB-435; MDA-MB-435 (Breast)) was under 5 nM, the GI50 (MDA-N; MDA-N (Breast)) was under 5 nM and the GI50 (SF-295; SF-295 (CNS)) was 18 nM. For the same compound, the GI50 (SNB-75; SNB-75 (CNS)) was under 5 nM, the GI50 (U251; U251 (CNS)) was 7.8 nM and the GI50 (COLO 205; COLO 205 (Colon)) was under 5 nM. The GI50 (HCT-15; HCT-15 (Colon)) was 170 nM, the GI50 (HT29; HT29 (Colon)) was under 5 nM and the GI50 (KM12; KM12 (Colon)) was under 5 nM. The GI50 (SW-620; SW-620 (Colon)) was under 5 nM, the GI50 (HL-60(TB)) was under 5 nM and the GI50 (K-562; K-562 (Leukemia)) was under 5 nM. It also gave a GI50 (MOLT-4; MOLT-4 (Leukemia)) of under 5 nM, a GI50 (RPMI-8226; RPMI-8226 (Leukemia)) of under 5 nM and a GI50 (SR; SR (Leukemia)) of under 5 nM. It also gave a GI50 (LOX IMVI; LOX IMVI (Melanoma)) of under 5 nM, a GI50 (M14; M14 (Melanoma)) of under 5 nM and a GI50 (SK-MEL-28; SK-MEL-28 (Melanoma)) of 10 nM. It also gave a GI50 (A549/ATCC; [1]) of under 5 nM, a GI50 (EKVX; EKVX (Non-Small Cell Lung)) of 23 nM and a GI50 (HOP-62; HOP-62 (Non-Small Cell Lung)) of under 5 nM. It also gave a GI50 (HOP-92; HOP-92 (Non-Small Cell Lung)) of 11 nM, a GI50 (NCI-H226; NCI-H226 (Non-Small Cell Lung)) of 21 nM and a GI50 (NCI-H322M; [2]) of under 0.005 µM. It also gave a GI50 (NCI-H522) of under 5 nM, a GI50 (IGROV1; IGROV1 (Ovarian)) of 13 nM and a GI50 (OVCAR-4; OVCAR-4 (Ovarian)) of under 5 nM. The GI50 (OVCAR-5; OVCAR-5 (Ovarian)) was 17 nM, the GI50 (OVCAR-8; OVCAR-8 (Ovarian)) was 7.6 nM and the GI50 (RXF 393; RXF 393 (Renal)) was under 5 nM. The GI50 (SN12C; SN12C (Renal)) was under 5 nM, the GI50 (TK-10) was 10 nM and the GI50 (UO-31; UO-31 (Renal)) was 63 nM.
Compound `CC[C@H](CO)Nc1nc(NCc2ccc(-c3ccccn3)cc2)c2ncn(C(C)C)c2n1` [Compound 17] has a GI50 (HS 578T; Breast, HS 578T) of 6.31 µM, a GI50 (MCF7; Breast, MCF7) of 160 nM and a GI50 (MDA-MB-435; Breast, MDA-MB-435) of 200 nM. The GI50 (MDA-N; Breast, MDA-N) was 110 nM, the GI50 (SF-295; CNS, SF-295) was 190 nM and the GI50 (SNB-75; CNS, SNB-75) was 20 nM. It also gave a GI50 (U251; CNS, U251) of 400 nM, a GI50 (COLO 205; Colon, COLO 205) of 50 nM and a GI50 (HCT-15; Colon, HCT-15) of 40 nM. The GI50 (HT29; Colon, HT29) was 100 nM, the GI50 (KM12; Colon, KM12) was 30 nM and the GI50 (SW-620; Colon, SW-620) was 10 nM. For the same compound, the GI50 (K-562; Leukemia, K-562) was 160 nM, the GI50 (MOLT-4; Leukemia, MOLT-4) was 250 nM and the GI50 (RPMI-8226; Leukemia, RPMI-8226) was 30 nM. For the same compound, the GI50 (SR; Leukemia, SR) was 500 nM, the GI50 (LOX IMVI; Melanoma, LOX IMVI) was 320 nM and the GI50 (M14; Melanoma, M14) was 30 nM. The GI50 (SK-MEL-28; Melanoma, SK-MEL-28) was 120 nM, the GI50 (SK-MEL-5; Melanoma, SK-MEL-5) was 320 nM and the GI50 (A549/ATCC; Non-Small Cell Lung, A549/ATCC) was 30 nM. For the same compound, the GI50 (EKVX; Non-Small Cell Lung, EKVX) was 2510 nM, the GI50 (HOP-62; Non-Small Cell Lung, HOP-62) was 200 nM and the GI50 (HOP-92; Non-Small Cell Lung, HOP-92) was 1580 nM. For the same compound, the GI50 (NCI-H226; Non-Small Cell Lung, NCI-H226) was 110 nM, the GI50 (NCI-H322M; Non-Small Cell Lung, NCI-H322M) was over 1000 µM and the GI50 (NCI-H460; Non-Small Cell Lung, NCI-H460) was 410 nM. The GI50 (IGROV1; Ovarian, IGROV1) was 200 nM, the GI50 (OVCAR-4; Ovarian, OVCAR-4) was 320 nM and the GI50 (OVCAR-5; Ovarian, OVCAR-5) was 260 nM. For the same compound, the GI50 (OVCAR-8; Ovarian, OVCAR-8) was 130 nM, the GI50 (SK-OV-3; Ovarian, SK-OV-3) was 400 nM and the GI50 (CAKI-1; Renal, CAKI-1) was 130 nM. The GI50 (RXF 393; Renal, RXF 393) was 20 nM, the GI50 (SN12C; Renal, SN12C) was 560 nM and the GI50 (UO-31; Renal, UO-31) was 100 nM.
`CC(=O)N[C@H]1CC[C@H](Nc2nc(NCc3ccc(-c4ccccn4)cc3)c3ncn(C(C)C)c3n2)CC1` [Compound 79] was tested, and the GI50 (HS 578T; HS 578T (Breast)) was under 0.01 µM, the GI50 (MCF7; MCF7 (Breast)) was under 10 nM and the GI50 (MDA-MB-231/ATCC) was under 10 nM. For the same compound, the GI50 (MDA-MB-435; MDA-MB-435 (Breast)) was under 10 nM, the GI50 (MDA-N; MDA-N (Breast)) was under 10 nM and the GI50 (SF-295; SF-295 (CNS)) was under 10 nM. The GI50 (SNB-75; SNB-75 (CNS)) was under 10 nM, the GI50 (U251; U251 (CNS)) was under 10 nM and the GI50 (COLO 205; COLO 205 (Colon)) was under 10 nM. For the same compound, the GI50 (HCT-15; HCT-15 (Colon)) was under 10 nM, the GI50 (HT29; HT29 (Colon)) was under 10 nM and the GI50 (KM12; KM12 (Colon)) was under 10 nM. It also gave a GI50 (SW-620; SW-620 (Colon)) of under 10 nM, a GI50 (HL-60(TB)) of under 10 nM and a GI50 (K-562; K-562 (Leukemia)) of under 10 nM. For the same compound, the GI50 (MOLT-4; MOLT-4 (Leukemia)) was under 10 nM, the GI50 (RPMI-8226; RPMI-8226 (Leukemia)) was under 10 nM and the GI50 (SR; SR (Leukemia)) was under 10 nM. For the same compound, the GI50 (LOX IMVI; LOX IMVI (Melanoma)) was under 10 nM, the GI50 (M14; M14 (Melanoma)) was under 10 nM and the GI50 (SK-MEL-28; SK-MEL-28 (Melanoma)) was under 10 nM. The GI50 (SK-MEL-5; SK-MEL-5 (Melanoma)) was under 10 nM, the GI50 (A549/ATCC; [1]) was under 10 nM and the GI50 (EKVX; EKVX (Non-Small Cell Lung)) was under 10 nM. For the same compound, the GI50 (HOP-62; HOP-62 (Non-Small Cell Lung)) was under 10 nM, the GI50 (HOP-92; HOP-92 (Non-Small Cell Lung)) was under 10 nM and the GI50 (NCI-H226; NCI-H226 (Non-Small Cell Lung)) was under 10 nM. The GI50 (NCI-H322M; [2]) was under 0.01 µM, the GI50 (NCI-H460; NCI-H460 (Non-Small Cell Lung)) was under 10 nM and the GI50 (NCI-H522) was under 10 nM. For the same compound, the GI50 (IGROV1; IGROV1 (Ovarian)) was under 10 nM, the GI50 (OVCAR-4; OVCAR-4 (Ovarian)) was under 10 nM and the GI50 (OVCAR-5; OVCAR-5 (Ovarian)) was under 10 nM. For the same compound, the GI50 (OVCAR-8; OVCAR-8 (Ovarian)) was under 10 nM, the GI50 (SK-OV-3; SK-OV-3 (Ovarian)) was under 10 nM and the GI50 (CAKI-1; CAKI-1 (Renal)) was under 10 nM. It also gave a GI50 (RXF 393; RXF 393 (Renal)) of under 10 nM, a GI50 (SN12C; SN12C (Renal)) of under 10 nM and a GI50 (TK-10) of under 10 nM. For the same compound, the GI50 (UO-31; UO-31 (Renal)) was under 10 nM.
